From patent US20050154034A1, “Methods of using zonisamide as an adjunctive therapy for partial seizures” (Eisai Co., Ltd., priority 2004, published 2005)

Columns and labels:
[1] = Pharmacovigilance review of rhabdomyolysis/CPK elevation in zonisamide-treated patients; assay type: in vivo, human patients (U.S. and Japan)
Description: The pharmacovigilance data that were collected, reviewed and analyzed provided the following information in respect of the incidence of rhabdomyolysis/CPK elevation in the zonisamide-treated patient population. To date, a total of 10 cases fulfill the criteria of potential rhabdomyolysis cases. These 10 cases were reviewed in detail for evaluation of possible safety signals. All 10 cases fulfill serious criteria. Of these 10 cases, seven (7) cases were reported as rhabdomyolysis and three (3) cases were reported as CPK increase.
Of the seven (7) rhabdomyolysis cases, six (6) are verbatim cases from Dainippon and one (1) originates in the U.S. Of the seven (7) cases, three (3) were pediatric cases and four (4) were adult cases.
Of the seven (7) rhabdomyolysis cases, two (2) cases have strong confounding factors, but the possibility of zonisamide involvement cannot be completely excluded. Two (2) cases have moderate confounding factors, and zonisamide involvement may be possible.
Of the three (3) cases of CPK increase, one (1) is a verbatim report from Dainippon, and two (2) originated from the U.S. Of the three (3) cases, two are pediatric patients and one is an adult. Of these three (3) cases, two (2) recovered and the outcome of the third is unknown.
Of the three (3) cases of CPK increase, one (1) case has strong confounding factors, but the possibility of zonisamide involvement cannot be completely excluded. One (1) case has weak confounding factors, and zonisamide involvement may be possible.
Estimates of zonisamide exposure, based upon retail and mail order prescriptions, indicate that the number of unique patients taking zonisamide capsules in the U.S. is about 37,276 (total prescriptions per year/average number of prescriptions per patient per year less a calculated percentage decrease based on estimated annual dropouts) in the time between approval in 2000 and December 2002 . Hospital patient data for that period, however, is not available and is not reflected in the estimates. Estimates of patient exposure for Japan indicate that the number of unique patients taking zonisamide is about 1,185,177 for time beginning with the approval in Japan through December 2002. Japanese data includes prescription and hospital patient data. Exposure from clinical trials are not included in the U.S. or Japanese exposure estimates. Based on these statistics, the estimated number of patients exposed to zonisamide in the U.S. and Japan is 1,222,453 unique patients. This is a rather conservative estimate, assuring that the number of patients actually exposed to zonisamide is unlikely to be higher than the estimate provided. Similarly, the incidences of rhabdomyolysis estimated herein are unlikely to be higher than calculated. […] For the one (1) case reported in Japan, this amounts to an estimated incidence of 1:1,185,177 based upon estimated Japanese exposure. For the one (1) case reported in the US, this represents an estimated incidence of 1:37,276 based upon estimated US exposure. These two (2) cases of CPK increase represent a combined estimated incidence of 1:611,227 based upon the combined estimates of Japanese and US exposure. Thus, the overall estimated incidences of elevated CPK are 1:395,059 for Japanese cases, 1:18,638 for US cases and 1:244,491 for both Japanese and US cases, based on combining the reported cases of rhabdomyolysis and elevated CPK (the standard surrogate marker of muscle breakdown and typically seen in rhabdomyolysis).
Combining all the above cases of rhabdomyolysis and CPK increase, the estimated incidences of any patient who has experienced an elevated CPK (marker of muscle breakdown) are 1:400,000 for Japanese cases and 1:18,000 for US cases.

[2] = test system: sodium channels; details: in vitro; cited from earlier work
[3] = test system: T-type Ca2+ currents; details: in vitro; cited from earlier work
[4] = test system: GABA/benzodiazepine receptor ionophore complex; details: in vitro; cited from earlier work
[5] = test system: cultured mouse spinal cord neurons; details: 10-30 μg/mL, cited from earlier work
[6] = test system: rat hippocampal slices; details: 10-30 μg/mL; cited from earlier work
[7] = test system: dopaminergic and serotonergic neurotransmission; details: in vivo microdialysis; cited from earlier work
[8] = cited from earlier work
[9] = test system: carbonic anhydrase; details: fraction of the inhibition of acetazolamide; cited from earlier work

Question: Which “CPK increase cases recovered” value ([1]; human, in vivo) does the source give for NS(=O)(=O)Cc1noc2ccccc12 [zonisamide, 1,2-benzisoxazole-3-methanesulfonamide] here?
Answer: 2 cases

Question: And the “cases fulfilling the criteria of potential rhabdomyolysis cases” value ([1]; human, in vivo)?
Answer: 10 cases

Question: What about the “cases of CPK increase with no or only weak confounding factors present” value ([1]; human, in vivo) of the same compound?
Answer: 2 cases

Question: And the “cases of rhabdomyolysis with no or only weak confounding factors present” value ([1]; human, in vivo)?
Answer: 3 cases

Question: What about the “cases reported as CPK increase” value ([1]; human, in vivo) of the same compound?
Answer: 3 cases

Question: What about the “cases reported as rhabdomyolysis” value ([1]; human, in vivo) of the same compound?
Answer: 7 cases

Question: And the “combined estimated incidence of CPK increase” value ([1]; human, in vivo)?
Answer: 1:611,227

Question: What about the “rhabdomyolysis cases not recovered” value ([1]; human, in vivo) of the same compound?
Answer: 2 cases

Question: What about the rhabdomyolysis cases recovered ([1]; human, in vivo) of the same compound?
Answer: 2 cases

Question: What about the “rhabdomyolysis cases recovering at time of report” value ([1]; human, in vivo) of the same compound?
Answer: 1 cases

Question: And the “time to development of CPK increase after initiation of zonisamide treatment” value ([1]; human, in vivo)?
Answer: two (2) days and six (6) weeks

Question: What about the “time to development of rhabdomyolysis after initiation of zonisamide treatment” value ([1]; human, in vivo) of the same compound?
Answer: two (2) weeks and nine (9) years

Question: What about the “rhabdomyolysis cases with fatal outcome” value ([1]; of 7 rhabdomyolysis cases) of the same compound?
Answer: 2 cases

Question: What about the “effect on sodium channels” value [2] of the same compound?
Answer: blocks sodium channels

Question: And the “effect on voltage-dependent, transient inward currents (T-type Ca2+ currents)” value [3]?
Answer: reduces

Question: What about the “binding to GABA/benzodiazepine receptor ionophore complex” value [4] of the same compound?
Answer: binds to the GABA/benzodiazepine receptor ionophore complex in an allosteric fashion

Question: And the “changes in chloride flux” value [4]?
Answer: does not produce changes in chloride flux

Question: And the “postsynaptic GABA or glutamate responses” value ([5]; cultured mouse spinal cord neurons)?
Answer: without affecting

Question: And the synaptically-driven electrical activity [5]?
Answer: suppresses

Question: What about the “neuronal or glial uptake of [3H]-GABA” value [6] of the same compound?
Answer: without affecting

Question: What about the “dopaminergic and serotonergic neurotransmission” value [7] of the same compound?
Answer: facilitates

Question: And the “frequency of side effects by dose” value ([8]; doses of 300 mg per day and above)?
Answer: more frequent

Question: And the half-life ([8]; human, in vivo)?
Answer: long half-life

Question: And the hepatic enzyme induction ([8]; human, in vivo)?
Answer: not known to be a hepatic enzyme inducer

Question: What about the “time required to achieve steady state levels” value ([8]; upon reaching a stable dose or following dosage adjustment) of the same compound?
Answer: up to two weeks

Question: What about the “carbonic anhydrase inhibition compared to acetazolamide” value [9] of the same compound?
Answer: 1/50
